# From patent US20250073210A1, “Use of Ergothioneine for Enhancing Glutathione Level” (priority 2022, published 2025)
# Experiments:
# [1] = test system: total GSH; experiment: Example 3: oral L-ergothioneine 5, 15, 30 mg/day on plasma glutathione in healthy humans; type: in vivo, human; conditions: Example 3, 1400 mg orally once weekly for 4 weeks, single subject, baseline 653 μM
# Description: A Baseline will be established looking at Total and Percent Reduced Glutathione. These same values will be measured at the end of the four weeks. Subjects will be contacted once a week while in the study for an assessment of compliance with intervention.
# Study Population: Male and female subjects 25-75 years of age Number of Subjects: 5, assigned as follows: 1 subject will receive the GSH administered orally once weekly for 4 weeks; 1 subject will receive S-acetyl-glutathione supplemented orally once daily for 4 weeks; 3 subjects will receive 5, 15, 30 mg L-ergothioneine supplemented orally once daily for 4 weeks, respectively.
# • 1. Individuals must be between 25-70 years of age with no known medical conditions that, in the investigator's opinion, may interfere with study participation. • 2. Subjects must present with mild to moderate signs oxidative stress or inflammation. • 3. Willingness to cooperate and participate by following Study requirements. • 4. Individuals must sign informed consent, photo release consent and confidentiality agreement.
# • 1. […] Individuals currently taking certain medications or any dietary supplements, which in the opinion of the investigator might interfere with the study. This would include but not be limited to routine high dosage use of anti-inflammatory drugs (aspirin, ibuprofen, corticosteroids) immunosuppressive drugs or antihistamine medications), and insulin, anti-hypertensive drugs, and especially antioxidants. • 3. Individuals with uncontrolled metabolic diseases such as diabetes (Type I and II), hypertension, hyperthyroidism or hypothyroidism, severe chronic asthma, immunological disorders such as HIV positive, AIDS and systemic lupus erythematosus or mastectomy for cancer involving removal of lymph nodes. • 4. Women known to be pregnant, nursing or planning to become pregnant. • 5. Individuals participating in other clinical studies evaluating antioxidants or anti-inflammatory interventions.
# [2] = test system: body stores of glutathione; conditions: oral 250 or 1000 mg/day, cited from earlier work
# [3] = test system: Nrf2 pathway; experiment: Gene expression profile of keratinocytes (mQPA-8-Nrf2 array as a whole); type: cell-based, human
# Method: (§1) In the present study, the effects of compound L-Ergothioneine were investigated in normal human epidermal keratinocytes (NHEK) under basal or UV-irradiated conditions. More specifically, the effects of this compound were evaluated using RT-qPCR technology. Extracted mRNA was analyzed using a PCR array (“mQPA-8-Nrf2”) for the analysis of 8 target genes (including 1 housekeeping gene) selected for their role in Nrf2 pathway. Prior to this assay, a preliminary cytotoxicity assay was performed on compound L-Ergothioneine and Resveratrol (reference in basal condition) using a standard WST-8 reduction assay, in order to determine the concentrations to be tested in this study.
# (§2) Cell type: Normal human epidermal keratinocytes (NHEK) used at the 3rd passage. Culture conditions: 37° C., 5% CO2. Culture medium: Keratinocyte-SFM optimized for the assay, supplemented with Epidermal Growth Factor Pituitary extract. Assay medium: Keratinocyte-SFM optimized for the assay. Test compound: L-Ergothioneine in ultrapure water. Test concentrations: 0.5, 3 and 30 μM. Reference: Resveratrol. Test concentration: 20 μM.
# (§3) Keratinocytes were seeded in 24-well plates and cultured for 24 hours in culture medium and in assay medium for a further 24 hours. The medium was then replaced by assay medium containing or not (control) the compound or Resveratrol and cells were pre-incubated for 24 hours.
# (§4) After pre-incubation, the medium was then removed and replaced by a PBS solution. For basal conditions, the plate was kept in the dark during the irradiation time. For irradiated conditions, the cells were irradiated with UVB−275 mJ/cm^2 (+UVA−2 J/cm^2) using a SOL500 Sun Simulator equipped with an H2 filter (Dr. Hönle, AG). After irradiation time, the treatments were renewed, and the cells were incubated for 24 hours. All experimental conditions were performed in n=3. At the end of incubation, the cells were washed in phosphate buffered saline (PBS) solution and immediately frozen at −80° C.
# (§5) The expression of markers was analyzed using RT-qPCR method on total RNA extracted from the cell monolayers of each experimental condition (before RNA extraction, the replicates of the same experimental condition were pooled). The analysis of transcripts was performed in n=2 using a PCR array dedicated to research and adapted to ‘screening’ format and targeting 8 genes selected for their role in Nrf2 pathway.
# [4] = test system: TXN; experiment: RT-qPCR PCR array mQPA-8-Nrf2, TXN expression in NHEK; type: cell-based, human
# Method: as §1, §2, §3, §4, §5
# (§6) Total RNA was extracted from each sample using TriPure Isolation Reagent® according to the supplier's instructions. The amount and quality of RNA were evaluated using capillary electrophoresis (Bioanalyzer 2100, Agilent technologies). The complementary DNA (cDNA) was synthetized by reverse transcription of total RNA in presence of oligo(dT) and «Transcriptor Reverse Transcriptase» (Roche Molecular System Inc.). The cDNA quantities were then adjusted before PCR.
# (§7) The PCR (Polymerase Chain Reaction) were performed using the «LightCycler®» system (Roche Molecular System Inc.) according to the supplier's instructions. The reaction mix (10 μl final) was prepared as follows: 2.5 μl of cDNA; primers (forward and reverse); reagent mix (Roche) containing taq DNA polymerase, SYBR Green I and MgCl2.
# (§8) The incorporation of fluorescence in amplified DNA was continuously measured during the PCR cycles. […] The value selected for RE calculations is the “output point” (Ct) of the fluorescence curve. For a considered marker, the highest is the cycle number; the lowest is the mRNA quantity. The RE value was calculated with the formula: (½^number of cycles)×10^6. The PCR array used in the present study included 1 reference gene (RPS28).
# [5] = test system: MT1G; experiment: RT-qPCR PCR array mQPA-8-Nrf2, MT1G expression in NHEK; type: cell-based, human
# Method: as §1, §2, §3, §4, §5, §6, §7, §8
# [6] = test system: NQO1; experiment: RT-qPCR PCR array mQPA-8-Nrf2, NQO1 expression in NHEK; type: cell-based, human
# Method: as §1, §2, §3, §4, §5, §6, §7, §8
# [7] = test system: RPS28; experiment: RT-qPCR PCR array mQPA-8-Nrf2, housekeeping gene RPS28; type: cell-based, human
# Method: as §1, §2, §3, §4, §5, §6, §7, §8
# [8] = test system: GCLC; experiment: RT-qPCR PCR array mQPA-8-Nrf2, GCLC expression in NHEK; type: cell-based, human
# Method: as §1, §2, §3, §4, §5, §6, §7, §8
# [9] = test system: normal human epidermal keratinocytes (NHEK); experiment: Preliminary cytotoxicity assay (WST-8 reduction, viability and morphological observations); type: cell-based; conditions: human, 24 h
# Method: as §1, §2
# (§9) Cell type: NHEK in assay medium. Incubation time: 24 hours.
# (§10) After treatment, the cells were incubated with WST-8 (highly water-soluble tetrazolium salt) reduced in a water-soluble orange colored product (formazan) by succinate dehydrogenase (mitochondrial enzyme). This transformation is proportional to the number of living cells and their metabolic activity. The optical density (OD) of the extracts at 450 nm was recorded with a spectrometer (VERSAmax, Molecular Devices).
# [10] = as above; type: cell-based, human; conditions: human
# Method: as §1, §2, §9, §10
# [11] = test system: HMOX1; experiment: RT-qPCR PCR array mQPA-8-Nrf2, HMOX1 expression in NHEK; type: cell-based, human
# Method: as §1, §2, §3, §4, §5, §6, §7, §8
# [12] = test system: TXNRD1; experiment: RT-qPCR PCR array mQPA-8-Nrf2, TXNRD1 expression in NHEK; type: cell-based, human
# Method: as §1, §2, §3, §4, §5, §6, §7, §8
# [13] = test system: GCLM; experiment: RT-qPCR PCR array mQPA-8-Nrf2, GCLM expression in NHEK; type: cell-based, human
# Method: as §1, §2, §3, §4, §5, §6, §7, §8
# [14] = UV-irradiated (UVB-275 mJ/cm^2 +UVA-2 J/cm^2), 0.5 μM
# [15] = UV-irradiated (UVB-275 mJ/cm^2 +UVA-2 J/cm^2), 3 μM
# [16] = UV-irradiated (UVB-275 mJ/cm^2 +UVA-2 J/cm^2), 30 μM
smiles,measurement,setting,value
N[C@@H](CCC(=O)N[C@@H](CS)C(=O)NCC(=O)O)C(=O)O [glutathione],% change from baseline in total GSH,[1],−23%
same,Natural killer cell cytotoxicity,[2]; at six months,favorable increases
same,Oxidized (GSSG) to reduced (GSH) glutathione ratio in whole blood,[2]; at six months,improvement
same,Body stores of glutathione,"[2]; six months, 54 non-smoking adults",significant increases
"C[N+](C)(C)[C@@H](Cc1c[nH]c(=S)[nH]1)C(=O)[O-] [L-Ergothioneine, (2S)-3-(2-thioxo-2,3-dihydro-1H-imidazol-4-yl)-2-(trimethylammonio)-propanoate]",Modulation of the gene expression profile of irradiated keratinocytes,"[3]; UVB (+UVA) irradiated, tested at 0.5, 3 and 30 μM",did not induce major modulations
same,"Effect on gene expression, basal keratinocytes","[3]; basal, lowest tested concentrations",no effect was observed
same,Modulation of the gene expression profile of basal keratinocytes,"[3]; basal, tested at 0.5, 3 and 30 μM",did not induce major modulations
same,"Effect on gene expression, irradiated keratinocytes","[3]; irradiated, lowest tested concentrations",no effect was observed
same,TXN % Control RPS28,[4]; [14],89 % Control
same,TXN % Control RPS28,[4]; [15],99 % Control
same,TXN % Control RPS28,[4]; [16],101 % Control
same,TXN % Control RPS28,"[4]; basal conditions, 0.5 μM",87 % Control
same,TXN % Control RPS28,"[4]; basal conditions, 3 μM",83 % Control
same,TXN % Control RPS28,"[4]; basal conditions, 30 μM",98 % Control
same,MT1G % Control RPS28,[5]; [14],81 % Control
same,MT1G % Control RPS28,[5]; [15],94 % Control
same,MT1G % Control RPS28,[5]; [16],102 % Control
same,MT1G % Control RPS28,"[5]; basal conditions, 0.5 μM",113 % Control
same,MT1G % Control RPS28,"[5]; basal conditions, 3 μM",99 % Control
same,MT1G % Control RPS28,"[5]; basal conditions, 30 μM",115 % Control
same,NQO1 % Control RPS28,[6]; [14],118 % Control
same,NQO1 % Control RPS28,[6]; [15],136 % Control
same,NQO1 % Control RPS28,[6]; [16],207 % Control
same,NQO1 % Control RPS28,"[6]; basal conditions, 0.5 μM",127 % Control
same,NQO1 % Control RPS28,"[6]; basal conditions, 3 μM",131 % Control
same,NQO1 % Control RPS28,"[6]; basal conditions, 30 μM",155 % Control
same,RPS28 % Control RPS28,[7]; [14],100 % Control
same,RPS28 % Control RPS28,[7]; [15],100 % Control
same,RPS28 % Control RPS28,[7]; [16],100 % Control
same,RPS28 % Control RPS28,"[7]; basal conditions, 0.5 μM",100 % Control
same,RPS28 % Control RPS28,"[7]; basal conditions, 3 μM",100 % Control
same,RPS28 % Control RPS28,"[7]; basal conditions, 30 μM",100 % Control
same,GCLC % Control RPS28,[8]; [14],106 % Control
same,GCLC % Control RPS28,[8]; [15],126 % Control
same,GCLC % Control RPS28,[8]; [16],181 % Control
same,GCLC % Control RPS28,"[8]; basal conditions, 0.5 μM",111 % Control
same,GCLC % Control RPS28,"[8]; basal conditions, 3 μM",118 % Control
same,GCLC % Control RPS28,"[8]; basal conditions, 30 μM",140 % Control
same,Viability (%),[9]; 2.2 µM,105%
same,Viability (%),[9]; 6.7 µM,101%
same,Viability (%),[9]; 20 µM,102%
same,Viability (%),[9]; 180 µM,95%
same,Viability (%),[9]; 4860 µM,79%
same,"viability at 24 h, 2.2 µM",[10]; Viability (%),97%
same,"viability at 24 h, 6.7 µM",[10]; Viability (%),98%
same,"viability at 24 h, 20 µM",[10]; Viability (%),99%
same,"viability at 24 h, 60 µM",[10]; Viability (%),100%
same,"viability at 24 h, 180 µM",[10]; Viability (%),99%
same,"viability at 24 h, 540 µM",[10]; Viability (%),100%
same,"viability at 24 h, 1620 µM",[10]; Viability (%),89%
same,"viability at 24 h, 4860 µM",[10]; Viability (%),82%
same,"viability at 24 h, 2.2 µM",[10]; Viability Mean (%),100%
same,"viability at 24 h, 6.7 µM",[10]; Viability Mean (%),99%
same,"viability at 24 h, 20 µM",[10]; Viability Mean (%),99%
same,"viability at 24 h, 60 µM",[10]; Viability Mean (%),99%
same,"viability at 24 h, 180 µM",[10]; Viability Mean (%),97%
same,"viability at 24 h, 540 µM",[10]; Viability Mean (%),66%
same,"viability at 24 h, 1620 µM",[10]; Viability Mean (%),92%
same,"viability at 24 h, 4860 µM",[10]; Viability Mean (%),83%
same,HMOX1 % Control RPS28,[11]; [14],104 % Control
same,HMOX1 % Control RPS28,[11]; [15],109 % Control
same,HMOX1 % Control RPS28,[11]; [16],141 % Control
same,HMOX1 % Control RPS28,"[11]; basal conditions, 0.5 μM",86 % Control
same,HMOX1 % Control RPS28,"[11]; basal conditions, 3 μM",91 % Control
same,HMOX1 % Control RPS28,"[11]; basal conditions, 30 μM",98 % Control
same,TXNRD1 % Control RPS28,[12]; [14],99 % Control
same,TXNRD1 % Control RPS28,[12]; [15],97 % Control
same,TXNRD1 % Control RPS28,[12]; [16],120 % Control
same,TXNRD1 % Control RPS28,"[12]; basal conditions, 0.5 μM",75 % Control
same,TXNRD1 % Control RPS28,"[12]; basal conditions, 3 μM",72 % Control
same,TXNRD1 % Control RPS28,"[12]; basal conditions, 30 μM",82 % Control
same,GCLM % Control RPS28,[13]; [14],76 % Control
same,GCLM % Control RPS28,[13]; [15],86 % Control
same,GCLM % Control RPS28,[13]; [16],86 % Control
same,GCLM % Control RPS28,"[13]; basal conditions, 0.5 μM",95 % Control
same,GCLM % Control RPS28,"[13]; basal conditions, 3 μM",97 % Control
same,GCLM % Control RPS28,"[13]; basal conditions, 30 μM",98 % Control
